Earlier results as cited in patent US20170333565A1, “TLR9 TARGETED CYTOTOXIC AGENTS” (H. LEE MOFFITT CANCER CENTER AND RESEARCH INSTITUTE, INC., priority 2014, published 2017).

Tested on: myelodysplastic syndromes (MDS)
Details: cited from earlier work

Nc1cccc2c1CN(C1CCC(=O)NC1=O)C2=O (centres unmarked) [LEN, lenalidomide]
clinical response (majority of patients with a chromosome 5q deletion (del5q)): sustained red blood cell transfusion independence | median duration of response (patients with del5q MDS): 2.5 years
